Measurements reported in US11034672B1, “Tyrosine kinase inhibitor compositions, methods of making and methods of use” (Black Diamond Therapeutics, Inc., priority 2018, dated 2021).

Assays:
Format in all cases: cell-based
[1] = molecular target: T1, EGFR WT (Homo sapiens, UniProt P00533); experiment: Activity for inhibiting EGFR (Table A), EGFR WT; details: read-out: EGFR WT, potency code (IC50)
[2] = molecular target: T1, EGFR WT; experiment: BaF3 cell proliferation assay, EGFR WT (Table A); details: potency code, 3 days, CellTiterGlo, read-out: EGFR WT (Activity for Inhibiting EGFR)
Outline: (§1)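 Readout: EC50 for BaF3 proliferation. Cells stably expressing the receptor variant were generated by retrovirus and IL-3 independence.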

[3] = molecular target: T2, HER2 YVMA (Homo sapiens, UniProt P04626, INS775YVMA); experiment: Activity for inhibiting HER2 (Table B), HER2 YVMA; details: read-out: HER2 YVMA, potency code (IC50)
T2 construct: expressed in transfected cells; host or cells: BaF3 (murine pro-B)
T2 sequence (P04626 with tags, fused parts or gaps INS775YVMA): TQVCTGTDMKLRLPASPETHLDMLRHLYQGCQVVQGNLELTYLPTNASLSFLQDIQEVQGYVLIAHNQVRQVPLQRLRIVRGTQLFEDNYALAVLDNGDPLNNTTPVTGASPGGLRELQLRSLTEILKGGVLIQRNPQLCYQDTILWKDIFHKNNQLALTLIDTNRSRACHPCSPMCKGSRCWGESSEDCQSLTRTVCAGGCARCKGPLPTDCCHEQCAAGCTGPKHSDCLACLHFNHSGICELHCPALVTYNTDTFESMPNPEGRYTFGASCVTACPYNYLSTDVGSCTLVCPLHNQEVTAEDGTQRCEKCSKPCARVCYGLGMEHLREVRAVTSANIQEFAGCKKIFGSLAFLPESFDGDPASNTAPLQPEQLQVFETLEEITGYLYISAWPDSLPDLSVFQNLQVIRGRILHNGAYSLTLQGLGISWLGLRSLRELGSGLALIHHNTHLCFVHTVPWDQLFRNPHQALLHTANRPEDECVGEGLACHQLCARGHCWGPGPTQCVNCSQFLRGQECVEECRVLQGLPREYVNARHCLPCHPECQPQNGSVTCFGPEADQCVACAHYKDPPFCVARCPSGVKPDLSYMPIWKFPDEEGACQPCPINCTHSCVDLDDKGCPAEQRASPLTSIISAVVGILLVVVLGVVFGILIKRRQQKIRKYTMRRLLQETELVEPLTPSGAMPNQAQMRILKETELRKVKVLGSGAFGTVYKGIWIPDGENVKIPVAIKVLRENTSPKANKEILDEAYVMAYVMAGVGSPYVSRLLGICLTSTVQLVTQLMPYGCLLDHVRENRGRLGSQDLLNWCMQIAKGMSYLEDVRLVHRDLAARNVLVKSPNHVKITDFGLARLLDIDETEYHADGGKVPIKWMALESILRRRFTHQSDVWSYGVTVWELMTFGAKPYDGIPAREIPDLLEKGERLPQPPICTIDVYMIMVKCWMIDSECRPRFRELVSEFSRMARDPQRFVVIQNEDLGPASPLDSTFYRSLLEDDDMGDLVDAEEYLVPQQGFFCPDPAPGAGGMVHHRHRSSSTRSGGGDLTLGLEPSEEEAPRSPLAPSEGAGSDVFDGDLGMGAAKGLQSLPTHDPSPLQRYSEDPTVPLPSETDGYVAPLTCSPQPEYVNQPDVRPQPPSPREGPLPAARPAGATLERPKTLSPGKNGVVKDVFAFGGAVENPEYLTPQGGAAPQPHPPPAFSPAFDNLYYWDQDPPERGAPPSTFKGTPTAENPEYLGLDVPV
Procedure: (§2) EC50 values were determined with the same application.

[4] = molecular target: T3, EGFR V3 (Homo sapiens, UniProt P00533, DELINS30-297G); experiment: Activity for inhibiting EGFR (Table A), EGFR V3 (EGFR-Viii); details: read-out: EGFR V3, potency code (IC50)
T3 construct: expressed in transfected cells; host or cells: BaF3 (murine pro-B), retroviral pMXs-IRES-Blasticidin
T3 sequence (P00533 with tags, fused parts or gaps DELINS30-297G): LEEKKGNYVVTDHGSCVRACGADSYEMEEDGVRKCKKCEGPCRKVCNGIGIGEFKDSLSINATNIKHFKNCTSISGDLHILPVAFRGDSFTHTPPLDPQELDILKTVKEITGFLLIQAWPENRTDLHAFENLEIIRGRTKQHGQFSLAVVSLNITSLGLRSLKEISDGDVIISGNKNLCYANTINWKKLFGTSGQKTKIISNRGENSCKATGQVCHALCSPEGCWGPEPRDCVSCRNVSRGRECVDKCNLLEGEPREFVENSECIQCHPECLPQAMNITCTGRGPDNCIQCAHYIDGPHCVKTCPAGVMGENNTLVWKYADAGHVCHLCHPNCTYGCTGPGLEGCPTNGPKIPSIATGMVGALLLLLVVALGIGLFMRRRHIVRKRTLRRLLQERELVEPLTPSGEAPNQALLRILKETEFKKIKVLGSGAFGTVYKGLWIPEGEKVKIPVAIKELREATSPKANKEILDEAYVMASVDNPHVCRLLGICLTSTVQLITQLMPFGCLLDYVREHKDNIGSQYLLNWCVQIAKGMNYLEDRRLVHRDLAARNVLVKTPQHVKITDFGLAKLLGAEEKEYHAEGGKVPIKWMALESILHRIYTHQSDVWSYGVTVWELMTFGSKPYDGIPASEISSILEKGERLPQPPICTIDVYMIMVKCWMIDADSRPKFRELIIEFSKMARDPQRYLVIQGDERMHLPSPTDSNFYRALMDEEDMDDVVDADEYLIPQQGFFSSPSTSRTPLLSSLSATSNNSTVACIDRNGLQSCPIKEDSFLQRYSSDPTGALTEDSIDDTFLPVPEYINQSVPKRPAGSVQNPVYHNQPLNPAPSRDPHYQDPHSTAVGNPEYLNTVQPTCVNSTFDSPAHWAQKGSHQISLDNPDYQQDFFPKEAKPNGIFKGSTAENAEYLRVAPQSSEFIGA

[5] = molecular target: T2, HER2 YVMA; experiment: BaF3 cell proliferation assay, HER2 YVMA (Table B); details: potency code, 3 days, CellTiterGlo, read-out: HER2 YVMA (Activity for Inhibiting HER2)
[6] = molecular target: T3, EGFR V3; experiment: BaF3 cell proliferation assay, EGFR V3 (Table A); details: potency code, 3 days, CellTiterGlo, read-out: EGFR V3 (Activity for Inhibiting EGFR)
Outline: as §1

[7] = molecular target: T4, HER2 S310F (Homo sapiens, UniProt P04626, S310F); experiment: BaF3 cell proliferation assay, HER2 S310F (Table B); details: potency code, 3 days, CellTiterGlo, read-out: HER2 S310F (Activity for Inhibiting HER2)
T4 construct: expressed in transfected cells; host or cells: BaF3 (murine pro-B)
T4 sequence (P04626 23-1255 S310F): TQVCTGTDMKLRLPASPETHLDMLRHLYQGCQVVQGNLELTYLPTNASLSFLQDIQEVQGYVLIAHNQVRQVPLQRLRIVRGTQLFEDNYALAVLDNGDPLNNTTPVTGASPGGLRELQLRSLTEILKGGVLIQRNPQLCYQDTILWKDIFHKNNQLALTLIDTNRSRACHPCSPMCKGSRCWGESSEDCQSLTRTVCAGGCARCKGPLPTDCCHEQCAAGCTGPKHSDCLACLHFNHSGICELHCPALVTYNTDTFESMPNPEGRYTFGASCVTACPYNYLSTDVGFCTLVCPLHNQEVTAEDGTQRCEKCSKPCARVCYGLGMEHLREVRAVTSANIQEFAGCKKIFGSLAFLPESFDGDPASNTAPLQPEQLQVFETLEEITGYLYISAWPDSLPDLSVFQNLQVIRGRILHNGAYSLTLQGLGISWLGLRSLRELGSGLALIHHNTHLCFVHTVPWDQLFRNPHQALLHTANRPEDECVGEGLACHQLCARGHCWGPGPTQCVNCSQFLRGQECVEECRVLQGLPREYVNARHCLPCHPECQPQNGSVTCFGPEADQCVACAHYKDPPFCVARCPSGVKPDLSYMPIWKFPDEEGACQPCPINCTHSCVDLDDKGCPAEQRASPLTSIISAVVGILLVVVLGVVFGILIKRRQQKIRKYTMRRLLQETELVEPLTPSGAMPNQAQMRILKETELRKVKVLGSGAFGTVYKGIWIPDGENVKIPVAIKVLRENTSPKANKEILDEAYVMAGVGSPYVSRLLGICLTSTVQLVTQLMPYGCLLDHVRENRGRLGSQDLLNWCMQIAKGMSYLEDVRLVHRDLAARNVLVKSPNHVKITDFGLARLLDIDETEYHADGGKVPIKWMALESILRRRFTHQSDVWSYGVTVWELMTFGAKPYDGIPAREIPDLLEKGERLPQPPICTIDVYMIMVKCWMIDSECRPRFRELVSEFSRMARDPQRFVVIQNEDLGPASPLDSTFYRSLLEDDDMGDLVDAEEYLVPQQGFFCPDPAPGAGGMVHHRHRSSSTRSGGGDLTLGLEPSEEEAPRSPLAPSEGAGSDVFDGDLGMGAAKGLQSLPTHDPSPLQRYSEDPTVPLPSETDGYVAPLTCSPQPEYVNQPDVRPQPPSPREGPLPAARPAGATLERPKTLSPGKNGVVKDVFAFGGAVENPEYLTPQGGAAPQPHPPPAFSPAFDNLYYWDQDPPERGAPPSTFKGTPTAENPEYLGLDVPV

[8] = molecular target: T4, HER2 S310F; experiment: Activity for inhibiting HER2 (Table B), HER2 S310F; details: read-out: HER2 S310F, potency code (IC50)
Procedure: as §2

T1 sequence (P00533 25-1210 N540K): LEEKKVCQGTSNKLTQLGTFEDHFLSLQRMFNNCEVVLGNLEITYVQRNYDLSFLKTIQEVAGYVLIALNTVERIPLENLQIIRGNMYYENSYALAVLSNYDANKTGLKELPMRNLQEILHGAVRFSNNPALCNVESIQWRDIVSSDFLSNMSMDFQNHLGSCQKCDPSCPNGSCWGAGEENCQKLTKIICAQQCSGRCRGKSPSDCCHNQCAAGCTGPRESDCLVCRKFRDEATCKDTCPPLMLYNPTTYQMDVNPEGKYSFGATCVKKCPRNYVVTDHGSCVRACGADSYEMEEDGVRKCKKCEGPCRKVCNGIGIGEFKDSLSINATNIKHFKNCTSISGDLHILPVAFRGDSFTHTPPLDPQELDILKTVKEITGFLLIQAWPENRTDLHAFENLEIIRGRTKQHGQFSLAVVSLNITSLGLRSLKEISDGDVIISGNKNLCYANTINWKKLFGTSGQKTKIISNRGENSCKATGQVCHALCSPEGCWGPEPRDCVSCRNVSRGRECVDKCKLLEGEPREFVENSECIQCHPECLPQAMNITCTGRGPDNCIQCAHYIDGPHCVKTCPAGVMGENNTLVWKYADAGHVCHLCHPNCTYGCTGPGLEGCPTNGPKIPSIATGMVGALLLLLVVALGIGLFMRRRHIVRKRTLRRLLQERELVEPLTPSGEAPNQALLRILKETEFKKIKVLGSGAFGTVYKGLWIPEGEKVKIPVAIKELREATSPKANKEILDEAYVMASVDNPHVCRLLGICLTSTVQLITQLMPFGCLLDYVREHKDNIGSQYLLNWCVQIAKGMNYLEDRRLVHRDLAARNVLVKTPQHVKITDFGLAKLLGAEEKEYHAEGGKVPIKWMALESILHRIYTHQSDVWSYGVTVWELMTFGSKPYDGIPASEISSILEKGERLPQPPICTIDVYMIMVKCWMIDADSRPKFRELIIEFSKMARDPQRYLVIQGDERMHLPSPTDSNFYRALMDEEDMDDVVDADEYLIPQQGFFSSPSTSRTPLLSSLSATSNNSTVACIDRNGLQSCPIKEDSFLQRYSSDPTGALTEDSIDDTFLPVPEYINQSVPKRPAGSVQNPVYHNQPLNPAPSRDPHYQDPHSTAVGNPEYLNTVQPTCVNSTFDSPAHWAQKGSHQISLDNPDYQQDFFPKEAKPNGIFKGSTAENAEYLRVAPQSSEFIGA

| IC50 [1] | IC50 [2] | IC50 [3] | IC50 [4] | IC50 [5] | IC50 [6] | IC50 [7] | IC50 [8] | Structure (SMILES) |
| --- | --- | --- | --- | --- | --- | --- | --- | --- |
| 300 to 500 nM | 300 to 500 nM | > 1000 nM | 50 to 100 nM | > 1000 nM | 50 to 100 nM | 100 to 200 nM | 100 to 200 nM | C=CC(=O)Nc1cc2c(Nc3ccc(OCc4ccccn4)cc3)ncnc2cc1OCC1COCCN1 (stereo not drawn) [compound 79] |
| 300 to 500 nM | 300 to 500 nM | 100 to 200 nM | 50 to 100 nM | 100 to 200 nM | 50 to 100 nM | 30 to 50 nM | 30 to 50 nM | CC#CC(=O)Nc1cc2c(Nc3ccc(OCc4ccncn4)c(Cl)c3)ncnc2cc1OCCCN1CCOCC1 [compound 164, N-(4-((3-chloro-4-(pyrimidin-4-ylmethoxy)phenyl)amino)-7-(3-morpholinopropoxy)quinazolin-6-yl)but-2-ynamide] |
| 50 to 100 nM | 50 to 100 nM | 50 to 100 nM | 30 to 50 nM | 50 to 100 nM | 30 to 50 nM | 10 to 20 nM | 10 to 20 nM | CC#CC(=O)Nc1cc2c(Nc3ccc(OCc4ccccn4)c(Cl)c3)ncnc2cc1C#CC(C)(C)N1CCN(C)CC1 [compound 89, N-(4-((3-chloro-4-(pyridin-2-ylmethoxy)phenyl)amino)-7-(3-methyl-3-(4-methylpiperazin-1-yl)but-1-yn-1-yl)quinazolin-6-yl)but-2-ynamide] |
| 100 to 200 nM | 100 to 200 nM | 300 to 500 nM | 100 to 200 nM | 300 to 500 nM | 100 to 200 nM | 30 to 50 nM | 30 to 50 nM | C=CC(=O)Nc1cc2c(Nc3ccc(OCc4cccc(F)c4)c(Cl)c3)ncnc2cc1O[C@@H]1CCN(C)C1 [compound 141] |
| 500 to 1000 nM | 500 to 1000 nM | > 1000 nM | 100 to 200 nM | > 1000 nM | 100 to 200 nM | 100 to 200 nM | 100 to 200 nM | C=CC(=O)Nc1cc2c(Nc3ccc(OCc4ccccn4)c(Cl)c3)ncnc2cc1OCCN1CCS(=O)(=O)CC1 [compound 125] |
| 200 to 300 nM | 200 to 300 nM | 30 to 50 nM | 50 to 100 nM | 30 to 50 nM | 50 to 100 nM | 10 to 20 nM | 10 to 20 nM | CC#CC(=O)Nc1cc2c(Nc3ccc(OCc4ccccn4)c(Cl)c3)ncnc2cc1C#CC1[C@H]2CN(C)C[C@@H]12 (stereo partly drawn) [compound 107, N-(4-((3-chloro-4-(pyridin-2-ylmethoxy)phenyl)amino)-7-(((1R,5S,6s)-3-methyl-3-azabicyclo[3.1.0]hexan-6-yl)ethynyl)quinazolin-6-yl)but-2-ynamide] |
| > 1000 nM | > 1000 nM | > 1000 nM | 30 to 50 nM | > 1000 nM | 30 to 50 nM | 200 to 300 nM | 200 to 300 nM | C=CC(=O)Nc1cc2c(Nc3ccc(OCc4ccccn4)c(Cl)c3)ncnc2cc1N1CC2(CCN2C)C1 [compound 50] |
| > 1000 nM | > 1000 nM | 300 to 500 nM | 50 to 100 nM | 300 to 500 nM | 50 to 100 nM | 50 to 100 nM | 50 to 100 nM | C=CC(=O)Nc1cc2c(Nc3ccc(OCc4cccnn4)c(Cl)c3)ncnc2cc1OCCN1CC(OC)C1 [compound 174] |
| 300 to 500 nM | 300 to 500 nM | > 1000 nM | 100 to 200 nM | > 1000 nM | 100 to 200 nM | 300 to 500 nM | 300 to 500 nM | COC/C=C/C(=O)Nc1cc2c(Nc3ccc(OCc4ccccn4)c(Cl)c3)ncnc2cc1OCCN1CCOCC1 [compound 112, (E)-N-(4-((3-chloro-4-(pyridin-2-ylmethoxy)phenyl)amino)-7-(2-morpholinoethoxy)quinazolin-6-yl)-4-methoxybut-2-enamide] |
| 500 to 1000 nM | 500 to 1000 nM | 200 to 300 nM | 50 to 100 nM | 200 to 300 nM | 50 to 100 nM | 30 to 50 nM | 30 to 50 nM | C=CC(=O)Nc1cc2c(Nc3ccc(Oc4ccccc4)c(Cl)c3)ncnc2cc1O[C@@H]1CCN(C)C1 [compound 91, (R)-N-(4-((3-chloro-4-phenoxyphenyl)amino)-7-((1-methylpyrrolidin-3-yl)oxy)quinazolin-6-yl)acrylamide] |
| 100 to 200 nM | 100 to 200 nM | 100 to 200 nM | 50 to 100 nM | 100 to 200 nM | 50 to 100 nM | 20 to 30 nM | 20 to 30 nM | C=CC(=O)Nc1cc2c(Nc3ccc(OCc4ccccn4)c(Cl)c3)ncnc2cc1OCCN1CC2CN(C)CC2C1 (stereo not drawn) [compound 77] |
| > 1000 nM | > 1000 nM | 100 to 200 nM | 30 to 50 nM | 100 to 200 nM | 30 to 50 nM | 30 to 50 nM | 30 to 50 nM | C=CC(=O)Nc1cc2c(Nc3ccc(OCc4ccccn4)c(Cl)c3)ncnc2cc1OCCN(C)C1CC1 [compound 53] |
| 500 to 1000 nM | 500 to 1000 nM | 300 to 500 nM | 50 to 100 nM | 300 to 500 nM | 50 to 100 nM | 30 to 50 nM | 30 to 50 nM | C=CC(=O)Nc1cc2c(Nc3ccc(Oc4ccc(C)nc4)c(C)c3)ncnc2cc1OCCN1CCOCC1 [compound 73] |
| 200 to 300 nM | 200 to 300 nM | 30 to 50 nM | 50 to 100 nM | 30 to 50 nM | 50 to 100 nM | 10 to 20 nM | 10 to 20 nM | CC#CC(=O)Nc1cc2c(Nc3cc(Cl)c(OCc4cccc(F)c4)cc3F)ncnc2cc1OCCCN1CCOCC1 [compound 150, N-(4-((5-chloro-2-fluoro-4-((3-fluorobenzyl)oxy)phenyl)amino)-7-(3-morpholinopropoxy)quinazolin-6-yl)but-2-ynamide] |
| 200 to 300 nM | 200 to 300 nM | 300 to 500 nM | 50 to 100 nM | 300 to 500 nM | 50 to 100 nM | 30 to 50 nM | 30 to 50 nM | C=CC(=O)Nc1cc2c(Nc3cc(Cl)c(OCc4cccc(F)c4)cc3F)ncnc2cc1OCCN1CC(OC)C1 [compound 134] |
| > 1000 nM | > 1000 nM | 300 to 500 nM | 100 to 200 nM | 300 to 500 nM | 100 to 200 nM | 30 to 50 nM | 30 to 50 nM | C=CC(=O)Nc1cc2c(Nc3ccc(CC(=O)c4ccccn4)c(Cl)c3)ncnc2cc1O[C@@H]1CCN(C)C1 [compound 121] |
| 500 to 1000 nM | 500 to 1000 nM | 100 to 200 nM | 30 to 50 nM | 100 to 200 nM | 30 to 50 nM | 20 to 30 nM | 20 to 30 nM | C=CC(=O)Nc1cc2c(Nc3ccc(OCc4ccccn4)c(Cl)c3)ncnc2cc1OC[C@H]1COCCN1 [compound 90, N-(4-((3-chloro-4-(pyridin-2-ylmethoxy)phenyl)amino)-7-(morpholin-3-ylmethoxy)quinazolin-6-yl)acrylamide] |
| 200 to 300 nM | 200 to 300 nM | 300 to 500 nM | 200 to 300 nM | 300 to 500 nM | 100 to 200 nM | 50 to 100 nM | 50 to 100 nM | C=CC(=O)Nc1cc2c(Nc3cc(Cl)c(OCc4cccc(F)c4)cc3F)ncnc2cc1OCCCN1CC(OC)C1 [compound 131] |
| > 1000 nM | > 1000 nM | > 1000 nM | 100 to 200 nM | > 1000 nM | 100 to 200 nM | 300 to 500 nM | 300 to 500 nM | C=CC(=O)Nc1cc2c(Nc3ccc(OCc4ccccn4)c(Cl)c3)ncnc2cc1N1CCC(N(C)C)C1 (stereo not drawn) [compound 64] |
| 200 to 300 nM | 200 to 300 nM | 50 to 100 nM | 30 to 50 nM | 50 to 100 nM | 30 to 50 nM | 10 to 20 nM | 10 to 20 nM | C=CC(=O)Nc1cc2c(Nc3ccc(OCc4ccccn4)c(Cl)c3)ncnc2cc1OC[C@H]1C[C@@H]2CN(C)C[C@@H]2C1 [compound 103, N-(4-((3-chloro-4-(pyridin-2-ylmethoxy)phenyl)amino)-7-(((3aR,5s,6aS)-2-methyloctahydrocyclopenta[c]pyrrol-5-yl)methoxy)quinazolin-6-yl)acrylamide] |
| 200 to 300 nM | 200 to 300 nM | 50 to 100 nM | 100 to 200 nM | 50 to 100 nM | 100 to 200 nM | 20 to 30 nM | 20 to 30 nM | CC#CC(=O)Nc1cc2c(Nc3cc(Cl)c(OCc4cccc(F)c4)cc3F)ncnc2cc1OCCN1CC2CCC(C1)O2 [compound 148, N-(7-(2-(8-oxa-3-azabicyclo[3.2.1]octan-3-yl)ethoxy)-4-((5-chloro-2-fluoro-4-((3-fluorobenzyl)oxy)phenyl)amino)quinazolin-6-yl)but-2-ynamide] |
